Consider one substance from patent US12128129B2, “Lactobacillus plantarum for skin care” (SYMRISE AG, priority 2019, dated 2024).

The test system of assay [1] is HEPKp 3 dimensional skin models. Kind of assay: Filaggrin release from HEPKp 3D skin models (ELISA). It is filed as cell-based, human. As to conditions: 0.05%, after 8 days, vs medium control. The source says:
Induction of Moisturizing Factor Filaggrin in 3D Skin Models Three dimensional skin models derived from human epidermal keratinocyte progenitors (HEPKp) and were systemically treated with test substances in CnT-PR-3D medium for 4 to 9 days. The filaggrin release was detected in the media by ELISA, Enzyme-linked Immunosorbent Assay Kit for filaggrin, Cloud-Clone Corp.
Background: In an ELISA, binding on a coated surface is turned into a signal by an enzyme label.

Assay [2] relates to HaCaT keratinocytes. Description: IL-8 release after S. aureus stimulation of pre-treated keratinocytes (ELISA). It is filed as cell-based, human. As to conditions: 0.25 mg/mL, 48 h pre-treatment. The protocol:
Anti-Inflammatory Effects of Lactobacillus plantarum HEAL 19 and HEAL 99 HaCaT keratinocytes were cultivated in 96-well plates using RPMI-A, medium sterile filtered with L-Glutamine, Capricorn, supplemented with 10% fetal calf serum (FCS), Capricorn. The plates were incubated at 37° C. and 5% CO2. After 24 hours starvation with cell culture medium (RPMI, 1% FCS) the cells were washed once. The anti-inflammatory substances/inactivated bacteria suspensions were suspended in starvation medium, applied and incubated for 24/48 h with parameters described above. Dexamethasone in a concentration of 10 μM was used as positive control. To remove bacterial cells after pre-incubation all wells were washed with cell culture medium three times. IL-1alpha, Gibco, life technologies was dissolved in H2Odest, diluted in starvation medium and pipetted to wells, preferably at a concentration of 30 ng/mL. Alternatively, a heat inactivated Staphylococcus aureus (DSM799) suspension was used as pro-inflammatory agent in a concentration of 0.1 mg/mL-1 mg/mL dry mass. After 8 h incubation the supernatants were separated. All samples were stored at −80° C. until further analyses. IL-8 concentrations were measured with Human CXCL8/IL-8, DuoSet ELISA, Development Systems, R&D Systems. The experimental procedure was performed as described in the provided protocol. […]

The subject of assay [3] is ex vivo skin models. Kind of assay: Skin barrier integrity (Rhodamine B) ex vivo after diesel particulate 1650b. In kind it is cell-based, human. To be noted: L. plantarum HEAL 19 formulation vs placebo, stimulation with diesel particulate (1650b). The protocol: Ex vivo trials were done by Cutech Srl, Italy. Effects of described Lactobacillus strains on various parameters were analyzed in ex vivo skin models. Human skin from abdominal plastic surgery was used. Applications of heat inactivated bacteria suspensions were done systemically or topically, in formulation or solved in cell culture medium Tape stripping may be used. Concentrations and incubation times may vary. Skin Barrier Integrity (Rhodamine B) Ex vivo skin models have been treated topically with the L. plantarum strains before the application of the diesel particulate (i.e. 1650b). All skin samples have been incubated at 35° C., 5% CO2 and environmental humidity. At the end of the experimental phase the skin samples have been harvested stained with Rhodaminde B, cryo-fixed and cut at the cryostat for consequent image acquisition and analysis. The analysis of Rhodamine B fluorescence has been performed within two sections of the epidermis area for each skin model. Images have been analyzed by evaluating the fluorescence through Image-J application (NIH, USA).

The subject of assay [4] is ex vivo human skin models. Description: Epidermal filaggrin, involucrin and cytokeratin 14 immunostaining ex vivo. It is filed as cell-based. As to conditions: various concentrations, vs vehicle (DMSO). As to the method: Ex Vivo Studies Ex vivo trials were done by Cutech Srl, Italy. Effects of described Lactobacillus strains on various parameters were analyzed in ex vivo skin models. Human skin from abdominal plastic surgery was used. Applications of heat inactivated bacteria suspensions were done systemically or topically, in formulation or solved in cell culture medium Tape stripping may be used. Concentrations and incubation times may vary. All data were processed in terms of mean, standard deviation and standard error of mean (SEM) for each treatment. Epidermal Filaggrin, Involucrin and Cytokeratin 14 For analyses, the models were immune-stained with the selected antibody filaggrin rabbit polyclonal [H-300], involucrin mouse monoclonal (SY5) and/or cytokeratin 14 (CK14) rabbit monoclonal (EPR17350). The amount of the antigen present in each slide was evaluated by estimating the intensity and the distribution of red dye within the epidermis. The obtained data were normalized for the length of the basal lamina.

The test system of assay [5] is ex vivo human skin models. Description: IL-8 release of ex vivo human skin models after diesel particulate 1650b. In kind it is cell-based. As to conditions: topical cosmetic formulation containing L. plantarum HEAL 19, stimulation with diesel particulate (1650b). As to the method:
Ex Vivo Studies Ex vivo trials were done by Cutech Srl, Italy. Effects of described Lactobacillus strains on various parameters were analyzed in ex vivo skin models. Human skin from abdominal plastic surgery was used. Applications of heat inactivated bacteria suspensions were done systemically or topically, in formulation or solved in cell culture medium Tape stripping may be used. Concentrations and incubation times may vary. All data were processed in terms of mean, standard deviation and standard error of mean (SEM) for each treatment. Anti-Inflammatory Effects Above described ex vivo human skin models have been used to verify the anti-inflammatory potential of the L. plantarum strains. The models were treatment with a L. plantarum HEAL 19 cosmetic emulsion followed by the application of the external noxious agent and pollutant 1650b, simulating air pollution. At a selected endpoint, the organ cell culture medium has been withdrawn from wells and analyzed for IL-8 using Deluxe set Human IL-8 of Biolegend®, Inc.

“Lactobacillus plantarum HEAL 19 (DSM 15313) [L. plantarum HEAL 19]”: the “filaggrin (FLG) release in medium” value in assay [1] was 215%. Moreover, the “IL-8 concentration in the medium reduced to, compared to only S. aureus stimulated control” value in assay [2] was determined as 31%. Also, the “rhodamine B penetration (skin barrier integrity)” value in assay [3] is on record as “reduction of rhodamine B penetration”. In assay [4] (topical treatment), the “cytokeratin 14 (CK14) production” value was “increased” and the involucrin production result is on record as “increased”. Besides, the “filaggrin release/contents ex vivo” value in assay [4] is reported as “concentration dependent induction”. Besides, the “IL-8 detection in cell culture medium reduced to, compared to placebo control” value in assay [5] was 75%.
